Test results taken from patent publication US12187713B2, “Immunomodulators, compositions and methods thereof” (Betta Pharmaceuticals Co., Ltd, priority 2019, dated 2025).
Counter-ions that a name gives are not always drawn.

Biological target: PD-1/PD-L1 (Homo sapiens (Human), UniProt Q9NZQ7)
Test: PD-1/PD-L1 Binding Assay (Alphascreen)
Description: PD-1/PD-L1 Binding Assay (Alphascreen)
The assays were conducted in a standard black 384-well polystyrene plate with a final volume of 20 μL. Inhibitors were first serially diluted in DMSO and then added to the plate wells before the addition of other reaction components. The final concentration of DMSO in the assay was […]. Add 100 nL/well of compound to the 384 reaction plate (6008280, PerkinElmer) with Echo and centrifuge at 1000 rpm for 1 minute. Add 5 μL/well 4×PD-L1 solutions to the 384 reaction plate, centrifuge at 1000 rpm for 1 minute, and add 5 μL/well 4×PD-1 solutions, centrifuge at 1000 rpm for 1 minute, and incubate at 25° C. for 15 minutes. The concentrations of the compounds were 300, 100, 33.33, 11.11, 3.70, 1.23, 0.41, 0.137, 0.046, 0.015, 0 nM, respectively. Add 10 μL/well 2× Anti-6×His AlphaLISA Acceptor beads and Streptavidin Donor beads solution (PerkinElmer-AL356F) to the above 384 reaction plate, centrifuge at 1000 rpm for 1 minute, and incubate at 25° C. in the dark for 120 minutes. Read the AlphaLISA signal value using the Envision Reader. IC50 determination was performed by fitting the curve of percent control activity versus the log of the inhibitor concentration using the GraphPad Prism 8.0 software.

Sequence of PD-1/PD-L1 (Q9NZQ7 19-238): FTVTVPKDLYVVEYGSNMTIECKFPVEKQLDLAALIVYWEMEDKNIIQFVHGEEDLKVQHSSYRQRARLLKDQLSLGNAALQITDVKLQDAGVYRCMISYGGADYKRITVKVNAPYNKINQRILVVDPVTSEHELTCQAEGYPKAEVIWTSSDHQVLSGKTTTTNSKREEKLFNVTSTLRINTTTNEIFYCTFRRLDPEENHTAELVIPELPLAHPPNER

IC50 (range symbols)	IC50 (numeric values)	Compound
5 to 50 nM	–	Cc1c(-c2nc3c(o2)CCN(CCCO)C3)cccc1-c1cccc(-c2nc3cc(CN4CCC[C@H]4C(=O)O)c(OC(F)F)cc3o2)c1C [Example 199, ((6-(difluoromethoxy)-2-(3′-(5-(3-hydroxypropyl)-4,5,6,7-tetrahydrooxazolo[4,5-c]pyridin-2-yl)-2,2′-dimethyl-[1,1′-biphenyl]-3-yl)benzo[d]oxazol-5-yl)methyl)proline]
5 to 50 nM	–	Cc1c(-c2cnc(CN3CCCC3)cn2)cccc1-c1cccc(-c2nc3cc(CN4CCC[C@H]4C(=O)O)c(OC(F)F)cc3o2)c1C [Example 284, ((6-(difluoromethoxy)-2-(2,2′-dimethyl-3′-(5-(pyrrolidin-1-ylmethyl)pyrazin-2-yl)-[1,1′-biphenyl]-3-yl)benzo[d]oxazol-5-yl)methyl)-L-proline]
0.1 to 5 nM	–	Cc1c(-c2nc3cc(CN4CCC[C@H]4C(=O)O)c(OC(F)F)cc3o2)cccc1-c1cccc(-c2nc3cc(CN(C(C)CO)C(C)CO)cc(C#N)c3o2)c1C (stereo partly drawn) [Example 147, ((2-(3′-(5-((bis(1-hydroxypropan-2-yl)amino)methyl)-7-cyanobenzo[d]oxazol-2-yl)-2,2′-dimethyl-[1,1′-biphenyl]-3-yl)-6-(difluoromethoxy)benzo[d]oxazol-5-yl)methyl)-L-proline]
–	0.49 nM	Cc1c(-c2nc3cc(CN4CC(C(C)(C)O)C4)c(OC(F)F)cc3o2)cccc1-c1cccc(-c2nc3cc(CN4CCC[C@H]4C(=O)O)c(OC(F)F)cc3o2)c1C [Example 69, ((6-(difluoromethoxy)-2-(3′-(6-(difluoromethoxy)-5-((3-(2-hydroxypropan-2-yl)azetidin-1-yl)methyl)benzo[d]oxazol-2-yl)-2,2′-dimethyl-[1,1′-biphenyl]-3-yl)benzo[d]oxazol-5-yl)methyl)-L-proline]
–	0.59 nM	CCNCc1cc2nc(-c3cccc(-c4cccc(-c5nc6cc(CN7CCC[C@H]7C(=O)O)c(OC(F)F)cc6o5)c4C)c3C)oc2cc1OC(F)F [Example 21, ((6-(difluoromethoxy)-2-(3′-(6-(difluoromethoxy)-5-((ethylamino)methyl)benzo[d]oxazol-2-yl)-2,2′-dimethyl-[1,1′-biphenyl]-3-yl)benzo[d]oxazol-5-yl)methyl)-L-proline]
0.1 to 5 nM	–	Cc1c(Nc2nccc3cc(CN4CCC(O)C4)cnc23)cccc1-c1cccc(-c2nc3cc(CN4CC[C@@H](C(=O)O)C4)c(OC(F)F)cc3o2)c1C (stereo partly drawn) [Example 181, (3R)-1-((6-(difluoromethoxy)-2-(3′-((3-((3-hydroxypyrrolidin-1-yl)methyl)-1,7-naphthyridin-8-yl)amino)-2,2′-dimethyl-[1,1′-biphenyl]-3-yl)benzo[d]oxazol-5-yl)methyl)pyrrolidine-3-carboxylic acid]
0.1 to 5 nM	–	Cc1c(-c2nc3cc(CN(C)C)c(OCc4cncc(S(C)(=O)=O)c4)cc3o2)cccc1-c1cccc(-c2nc3cc(CN4CCC[C@H]4C(=O)O)c(OC(F)F)cc3o2)c1C [Example 123, ((6-(difluoromethoxy)-2-(3′-(5-((dimethylamino)methyl)-6-((5-(methylsulfonyl)pyridin-3-yl)methoxy)benzo[d]oxazol-2-yl)-2,2′-dimethyl-[1,1′-biphenyl]-3-yl)benzo[d]oxazol-5-yl)methyl)-L-proline]
5 to 50 nM	–	Cc1c(-c2ccc(CN3CC[C@@H](c4nnn[nH]4)C3)c(F)c2)cccc1-c1cccc(-c2nc3cc(CN4CCC[C@H]4C(=O)O)c(OC(F)F)cc3o2)c1C [Example 251, ((2-(4″-(((R)-3-(1H-tetrazol-5-yl)pyrrolidin-1-yl)methyl)-3″-fluoro-2,2′-dimethyl-[1,1′:3′,1″- terphenyl]-3-yl)-6-(difluoromethoxy)benzo[d]oxazol-5-yl)methyl)proline]
0.1 to 5 nM	–	CCCNCCCNCc1cc2nc(-c3cccc(-c4cccc(-c5nc6cc(CN7CCC[C@H]7C(=O)O)c(OC(F)F)cc6o5)c4C)c3C)oc2cc1OC(F)F [Example 52, ((6-(difluoromethoxy)-2-(3′-(6-(difluoromethoxy)-5-(((3-(propylamino)propyl)amino)methyl)benzo [d]oxazol-2-yl)-2,2′-dimethyl-[1,1′-biphenyl]-3-yl)benzo[d]oxazol-5-yl)methyl)-L-proline]
0.1 to 5 nM	–	Cc1c(-c2nc3cc(CN4CC(=CC#N)C4)c(OC(F)F)cc3o2)cccc1-c1cccc(-c2nc3cc(CN4CCC[C@H]4C(=O)O)c(OC(F)F)cc3o2)c1C [Example 82, ((2-(3′-(5-((3-(cyanomethylene)azetidin-1-yl)methyl)-6-(difluoromethoxy)benzo[d]oxazol-2-yl)-2,2′-dimethyl-[1,1′-biphenyl]-3-yl)-6-(difluoromethoxy)benzo[d]oxazol-5-yl)methyl)-L-proline]
–	16 nM	COc1cc(-c2cccc(-c3cccc(-c4nc5cc(CN6CCC[C@H]6C(=O)O)c(OC(F)F)cc5o4)c3C)c2C)cc(OC)c1CN1CCCC1 [Example 254, ((6-(difluoromethoxy)-2-(3″,5″-dimethoxy-2,2′-dimethyl-4″-(pyrrolidin-1-ylmethyl)-[1,1′:3′,1″- terphenyl]-3-yl)benzo[d]oxazol-5-yl)methyl)-L-proline hydrochloride]
5 to 50 nM	–	COc1nc(-c2cccc(-c3cccc(-c4nc5cc(CN6CCC[C@@H]6C(=O)O)c(OC(F)F)cc5o4)c3C)c2C)ccc1CN1CC[C@H](C)C1 [Example 273, ((6-(difluoromethoxy)-2-(3′-(6-methoxy-5-(((S)-3-methylpyrrolidin-1-yl)methyl)pyridin-2-yl)-2,2′-dimethyl-[1,1′-biphenyl]-3-yl)benzo[d]oxazol-5-yl)methyl)-D-proline]
5 to 50 nM	–	Cc1c(-c2nc3cc(CN4CCC[C@H]4C(=O)O)c(OC(F)F)cc3o2)cccc1-c1cccc(-c2nc3cc(CN4CCCC4)c(F)c(F)c3n2C)c1C [Example 298, ((2-(3′-(6,7-difluoro-1-methyl-5-(pyrrolidin-1-ylmethyl)-1H-benzo[d]imidazol-2-yl)-2,2′-dimethyl-[1,1′-biphenyl]-3-yl)-6-(difluoromethoxy)benzo[d]oxazol-5-yl)methyl)-L-proline]
5 to 50 nM	–	Cc1c(-c2nc3cc(CN4CCC[C@H]4C(=O)O)c(OC(F)F)cc3o2)cccc1-c1cccc(-c2cnc(CN3CCCC3)cc2F)c1C [Example 262, ((6-(difluoromethoxy)-2-(3′-(4-fluoro-6-(pyrrolidin-1-ylmethyl)pyridin-3-yl)-2,2′-dimethyl-[1,1′-biphenyl]-3-yl)benzo[d]oxazol-5-yl)methyl)-L-proline]
–	0.37 nM	Cc1c(-c2nc3c(o2)CNC3)cccc1-c1cccc(-c2nc3cc(CN4CCC[C@H]4C(=O)O)c(OC(F)F)cc3o2)c1C [Example 202, ((6-(difluoromethoxy)-2-(3′-(5,6-dihydro-4H-pyrrolo[3,4-d]oxazol-2-yl)-2,2′-dimethyl-[1,1′-biphenyl]-3-yl)benzo[d]oxazol-5-yl)methyl)proline]
0.1 to 5 nM	–	Cc1c(-c2nc3cc(CN4CCC[C@@H]4C(=O)O)c(OC(F)F)cc3o2)cccc1-c1cccc(-c2ccc(CN3CCCC3)cc2F)c1Cl [Example 224, ((2-(2′-chloro-2″-fluoro-2-methyl-4″- (pyrrolidin-1-ylmethyl)-[1,1′:3′,1″-terphenyl]-3-yl)-6-(difluoromethoxy)benzo[d]oxazol-5-yl)methyl)-D-proline]
0.1 to 5 nM	–	Cc1c(-c2nc3cc(CN4CCC[C@H]4C(=O)O)c(OC(F)F)cc3o2)cccc1-c1cccc(-c2ccc(CN3CCCC3)cc2F)c1Cl [Example 222, ((2-(2′-chloro-2″-fluoro-2-methyl-4″- (pyrrolidin-1-ylmethyl)-[1,1′:3′,1″-terphenyl]-3-yl)-6-(difluoromethoxy)benzo[d]oxazol-5-yl)methyl)proline]
5 to 50 nM	–	Cc1c(-c2nc3cc(CN4CCC[C@@H]4C(=O)O)c(OC(F)F)cc3o2)cccc1-c1cccc(-c2nc3cc(CN4CCC(F)C4)cc(C#N)c3o2)c1C (stereo partly drawn) [Example 163, ((2-(3′-(7-cyano-5-((3-fluoropyrrolidin-1-yl)methyl)benzo[d]oxazol-2-yl)-2,2′-dimethyl-[1,1′-biphenyl]-3-yl)-6-(difluoromethoxy)benzo[d]oxazol-5-yl)methyl)-D-proline]
–	114 nM	Cc1c(COc2cc(OCc3cncc(OC(F)F)c3)c(CN3CC[C@@H](O)C3)cc2Cl)cccc1-c1cccc(-c2nc3cc(CN4CCC[C@H]4C(=O)O)c(OC(F)F)cc3o2)c1C [Example 208, ((2-(3′-((2-chloro-5-((5-(difluoromethoxy)pyridin-3-yl)methoxy)-4-(((R)-3-hydroxypyrrolidin-1-yl)methyl)phenoxy)methyl)-2,2′-dimethyl-[1,1′-biphenyl]-3-yl)-6-(difluoromethoxy)benzo[d]oxazol-5-yl)methyl)-L-proline]
0.1 to 5 nM	–	Cc1c(-c2nc3cc(CN4CCC[C@H]4C(=O)O)c(OC(F)F)cc3o2)cccc1-c1cccc(-c2ccc(CN3CCCC3)cc2F)c1Cl [Example 223, ((2-(2′-chloro-2″-fluoro-2-methyl-4″- (pyrrolidin-1-ylmethyl)-[1,1′:3′,1″-terphenyl]-3-yl)-6-(difluoromethoxy)benzo[d]oxazol-5-yl)methyl)-L-proline]
0.1 to 5 nM	–	Cc1c(-c2nc3cc(CN4CCC45COC5)ccc3o2)cccc1-c1cccc(-c2nc3cc(CN4CCC[C@H]4C(=O)O)c(OC(F)F)cc3o2)c1C [Example 106, ((2-(3′-(5-((6-oxa-1-azaspiro[3.3]heptan-1-yl)methyl)benzo[d]oxazol-2-yl)-2,2′-dimethyl-[1,1′-biphenyl]-3-yl)-6-(difluoromethoxy)benzo[d]oxazol-5-yl)methyl)-L-proline]
